We go through eight molecules from patent publication US8785473B2, “Plasminogen activator inhibitor-1 inhibitor” (Renascience Co., Ltd., priority 2009, dated 2014).

For assay [1], the system named is rat model of ferric chloride-induced thrombosis. Put plainly: Test Example 3: antithrombotic effect confirmation test in a rat model of ferric chloride-induced thrombosis. Conditions: SD rats, 0.3 mg/kg or 1 mg/kg orally 2 hours before operation, compared to the vehicle group (FIG. 1). It is filed as in vivo. From the text:
The antithrombotic effect of each of compounds (4), (13), (68), and (79) prepared in Examples 4, 13, 68, and 79 (hereinafter referred to as a test compound) was confirmed using a rat model of ferric chloride-induced thrombosis.
Male 9-week-old SD rats (Japan SLC) were used, and divided into a vehicle group and a test compound group (each having n=10). Two hours before the operation for performing a test, in the test compound group, a 0.5% aqueous sodium carboxymethylcellulose (CMC) solution obtained by suspending a test compound in a mortar was added so that the test compound was orally administered in an amount of 0.3 mg/kg or 1 mg/kg. In the vehicle group, a 0.5% CMC aqueous solution that contained no test compound was orally administered. Two hours after oral administration, the rats in each group were anesthetized using […]., and the following operations were performed on a heat pad that had been kept at 38° C.
An incision was made on the cervical skin, and the left carotid artery was exposed in such a manner that the cervical skeletal muscle was not injured. The adhesion tissue was carefully peeled off. Silk thread was placed over the carotid artery, and filter paper was put on the backside of the carotid artery to prevent effusion and facilitate experiment operations. A semicircular tube 5 mm in length (SP 110, inside diameter: 1.5 mm, produced by Natsume Seisakusho Co., Ltd.) was placed on the filter paper, and the blood vessel was placed in the tube. The carotid artery blood flow was measured using a cuff-type Doppler blood flow meter (inside diameter: 1 mm) placed at the periphery side, and recorded on a recorder (Graphtec WR3320) via an amplifier (Nihon Kohden, RMP-6004M). After the carotid artery blood flow was confirmed, filter paper (Whatman, No. 1, 2.5 mm×4.2 mm), to which 2 μL of physiological saline comprising 35% (w/w) ferric chloride was added dropwise, was wrapped around the origin of the carotid artery (the filter paper was positioned so that the length in the blood vessel circumferential direction was 4.2 mm). […]

Assay [2] concerns the target T1, PAI-1 (Homo sapiens, UniProt P05121). Nature of the assay: biochemical. The note with it: read-out: PAI-1 activity %.
Description: The final mixture contained 50 mM Tris-HCl (pH 8), 150 mM NaCl, 1% DMSO, 0.1% PEG-6000, 0.2 mM CHAPS, 5 nMPAI-1, 2 nM t-PA, 0.2 mM Spectrozyme t-PA synthetic substrate, and the compound (10 μM or 2.5 μM).
Assay [3] has as its target T1, PAI-1. Put plainly: Reference Test Example (2): evaluation of fibrinolytic action (fibrin plate, PAI-1 + t-PA). Details: purchased Molecular Innovations, Inc. (USA). In kind it is biochemical. Conditions: mixture of PAI-1, t-PA and test compound on fibrin plate, 18 hours, lysis area. Here is the method:
The fibrinolytic action of Compounds a and b were evaluated in accordance with the document (Matsuo, O. et al., Haemostasis, 16, 43-50 (1986)).
Specifically, an aqueous solution (containing 25 mM barbital-sodium, 50 mM NaCl, and 25 mM CaCl2) containing a concentration of 1.5 mg/mL of fibrinogen (produced by Organon Teknica) was added, on a 9 cm-plate, to thrombin dissolved in 0.2 mL of physiological saline (10NIH U/mL: produced by Mochida Pharmaceutical Co., Ltd.), and the mixture was allowed to stand at room temperature for 2 hours. Using this mixture, fibrinolysis assay was conducted.
Namely, a mixture of PAI-1, t-PA, and a test compound was added dropwise to the plate and incubated at room temperature for 18 hours. Then, fibrinolysis due to plasminogen activation was measured from the lysis area on the plate.

Assay [4] addresses T1, PAI-1. Put plainly: Reference Test Example (1): measurement of PAI-1 inhibitory activity (S-2288), comparison with tiplaxtinin. It is filed as biochemical. Details: purchased Molecular Innovations, Inc. (USA). Conditions: concentrations of 35 μM and 50 μM (FIG. 2). The procedure: The final mixture contained 100 mM Tris-HCl (pH 8), 30 mM NaCl, 1% DMSO, 0.1% Tween 80, 67 nM PAI-1, 9.8 nM t-PA, 1 mM S-2288, and test compound a or b (20, 35, or 50 μM).
[…] P-nitroaniline removed from the chromogenic substrate (S-2288) by t-PA action was measured using a spectrophotometer at an absorbance of 405 nm at 5-minute intervals for 30 minutes.
Comparative tests were carried out in the same manner using, in place of the above test compounds, a compound (tiplaxtinin) of the formula below that is used as an antithrombotic drug in US clinical trials (concentration: 20, 35, and 50 μM).
FIGS. 2 (A), (B), and (C) show PAI-1 activity (%) when compound a (concentrations: 20, 35, and 50 μM), compound b (concentrations: 20, 35, and 50 μM), and tiplaxtinin (comparative compound) (concentrations: 20, 35, and 50 μM) were added, respectively. The results reveal that compounds a and b had higher PAI-1 activity inhibitory action at concentrations of 35 μM and 50 μM than tiplaxtinin (comparative compound) (PAI-1 inhibitory activity).

For assay [5], the system named is mouse model with pulmonary fibrosis artificially induced by bleomycin. Put plainly: Reference Test Example (3): effects on bleomycin-induced pulmonary fibrosis. Conditions: bleomycin mice, 200 mg/kg p.o. twice/day for 14 days. In kind it is in vivo. The procedure: A C57BL/6 mouse (male, body weight: 19 to 21 g) was intraperitoneally anesthetized with pentobarbital, and an incision was made on the cervical organ. Ten mice were used as controls. Bleomycin (produced by Nippon Kayaku Co., Ltd.) (1.5 U/kg) lysed in physiological saline was endotracheally administered to each of the control mice (n=10) twice a day for 14 days. On the other hand, the test mice were subjected to forcible oral administration of compound b (200 mg/kg), suspended in a 0.5% carboxymethyl cellulose aqueous solution, twice a day for 14 days, in addition to the above endotracheal administration. Then, the lung tissues taken from these control mice and test mice were analyzed, and further assayed for hydroxyproline level. The hydroxyproline level in the lung tissues was measured as the hydrolysate level of the lung tissues, according to the method of Kivirikko et al. (Anal. Biochem. 19, 249-255 (1967)). The level (severity) of pulmonary fibrosis was scored from 0 to 8, based on the method of Ashcort et al. (J. Clin. Pathol. 41, 467-470 (1988)). Further, the control mice and the test mice were assayed for plasma PAI-1 activity (ng/mL).

Marks after values point to notes of the source that are not given here.

T1 sequence (P05121 24-402): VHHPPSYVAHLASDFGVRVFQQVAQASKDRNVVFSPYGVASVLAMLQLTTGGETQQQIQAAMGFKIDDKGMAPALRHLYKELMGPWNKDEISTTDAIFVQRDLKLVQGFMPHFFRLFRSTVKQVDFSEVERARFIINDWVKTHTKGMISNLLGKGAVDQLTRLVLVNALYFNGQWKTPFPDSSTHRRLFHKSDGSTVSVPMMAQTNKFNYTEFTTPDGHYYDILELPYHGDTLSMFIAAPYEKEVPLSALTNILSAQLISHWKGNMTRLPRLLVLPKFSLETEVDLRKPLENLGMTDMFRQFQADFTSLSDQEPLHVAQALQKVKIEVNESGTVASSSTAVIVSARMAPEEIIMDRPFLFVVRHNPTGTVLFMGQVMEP

In the case of `O=C(Nc1ccc(Cl)cc1C(=O)O)c1cccc(-c2ccccc2)c1` [Example 4, 2-[(biphenyl-3-ylcarbonyl)amino]-5-chlorobenzoic acid], the “initial occlusion time (antithrombotic effect)” value (“initial occlusion time” for short) in assay [1] was “significantly prolonged”.

Consider `O=C(COc1cccc(-c2ccoc2)c1)Nc1ccc(Cl)cc1C(=O)O` [Example 13, 5-chloro-2-({[3-(furan-3-yl)phenoxy]acetyl}amino)benzoic acid], for which the “initial occlusion time” value in assay [1] is recorded as “significantly prolonged”.

On to `CC(C(=O)Nc1ccc(Cl)cc1C(=O)O)(c1ccccc1)c1ccccc1` [Example 39, 5-chloro-2-[(2,2-diphenylpropanoyl)amino]benzoic acid], for which, in assay [2], the activity at 2.5 µM came to 88.6% and the activity at 10 µM was found to be 22.1%.

In the case of `O=C(COc1cccc(-c2ccccc2)c1)Nc1ccc(-c2ccccc2)cc1C(=O)O` [Example 45, 4-{[(biphenyl-3-yloxy)acetyl]amino}biphenyl-3-carboxylic acid], in assay [2], the activity at 2.5 µM is 76.9% and the activity at 10 µM was 0.9%.

As to `O=C(COc1ccc(-c2ccccc2)cc1)Nc1ccc(-c2ccoc2)cc1C(=O)O` [Example 46, 2-{[(biphenyl-4-yloxy)acetyl]amino}-5-(furan-3-yl)benzoic acid], in assay [2], the activity at 2.5 µM turned out to be 69.9% and the activity at 10 µM worked out at 0.4%.

Consider `O=C(Nc1ccc(Cl)cc1C(=O)O)c1cccc(C2=CCCCC2)c1` [Example 79, 5-chloro-2-({[3-(cyclohex-1-en-1-yl)phenyl]carbonyl}amino)benzoic acid], for which, in assay [1], the “initial occlusion time” value was “significantly prolonged”.

Regarding `CCC(CC(=O)Nc1scc(-c2ccccc2)c1C(=O)O)C(=O)Nc1scc(-c2ccccc2)c1C(=O)O` (stereo not shown) [compound a, 2-[3-(3′-Carboxy-4′-phenylthiophen-2′-ylcarbamoyl)-pentanoylamino]-4-phenylthiophen-3-carboxylic acid], in assay [3], the fibrinolytic action entry is “inhibit the suppression of fibrinolysis caused by PAI-1”. Further, the “PAI-1 activity inhibitory action compared with tiplaxtinin” value in assay [4] was “higher”.

Take `CCC(CC(=O)Nc1scc(-c2cccs2)c1C(=O)O)C(=O)Nc1scc(-c2cccs2)c1C(=O)O` (stereo not shown) [compound b, 2-[3-(3′-carboxy-4′-thienylthiophen-2′-ylcarbamoyl)-pentanoylamino]-4-thienylthiophen-3-carboxylic acid]: the fibrinolytic action result in assay [3] is reported as “inhibit the suppression of fibrinolysis caused by PAI-1”. In assay [4], the “PAI-1 activity inhibitory action compared with tiplaxtinin” value is “higher”. Besides, in assay [5] (n=10, mean±SE), the “Hydroxyproline level in the lung tissues” value is 204.2 ± 9.5^b μg/lung and the “Plasma PAI-1 activity” value is recorded as 1.2 ± 0.1^b ng/mL. The molecule further gave a fibrosis score in assay [5] (scored from 0 to 8, bleomycin alone 4.7±0.17) of 2.9±0.42.
